The structures appear in SMILES notation. Where a name gives a salt, the structure may show the parent alone. Read-outs that look alike come from different tables or passages of the source.

Test [1] concerns Complete Freunds Adjuvant model of inflammatory pain. The experiment in a line: Combination study: isobolographic analysis in the Complete Freunds Adjuvant model of inflammatory pain. The conditions noted are these: rat, PO, etoricoxib:Compound A dose ratios 1:1, 0.3:1 and 3:1. Type of test: in vivo. As for the experimental part: Etoricoxib and Compound A were tested in PO dose ratios of 1:1, 0.3:1, and 3:1.

In a further test the target is T1, Human FAAH (Homo sapiens, UniProt O00519).
T1 construct: The full length FAAH was subcloned into the mammalian expression vector, peDEF.neo
T1 sequence (O00519 1-579): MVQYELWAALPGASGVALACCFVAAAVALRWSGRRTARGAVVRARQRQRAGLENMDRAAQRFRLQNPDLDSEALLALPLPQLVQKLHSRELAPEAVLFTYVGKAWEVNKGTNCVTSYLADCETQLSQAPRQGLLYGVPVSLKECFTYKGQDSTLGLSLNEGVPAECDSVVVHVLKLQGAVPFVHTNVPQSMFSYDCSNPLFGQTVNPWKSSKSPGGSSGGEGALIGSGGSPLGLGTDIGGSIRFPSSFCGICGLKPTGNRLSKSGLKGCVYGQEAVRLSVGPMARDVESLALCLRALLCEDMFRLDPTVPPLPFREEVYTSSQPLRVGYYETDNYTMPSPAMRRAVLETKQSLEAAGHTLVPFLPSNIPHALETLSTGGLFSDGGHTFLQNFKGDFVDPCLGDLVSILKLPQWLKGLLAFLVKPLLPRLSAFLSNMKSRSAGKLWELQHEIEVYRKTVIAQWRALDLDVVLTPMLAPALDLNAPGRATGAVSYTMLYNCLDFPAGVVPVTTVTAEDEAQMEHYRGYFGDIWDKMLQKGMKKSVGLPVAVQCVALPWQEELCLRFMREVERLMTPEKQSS
The test is described as follows: Human FAAH lysate assay (CHO cell lysate expressing FAAH, AAMCA or 3H-anandamide hydrolysis). Type of test: biochemical. The text has this:
To assist in assay development stable cell lines for human, murine and rat full length FAAH were developed. […] The full length FAAH was subcloned into the mammalian expression vector, peDEF.neo, using XbaI and EcoRI restriction sites and used for stable cell line generation.
CHO cells expressing FAAH were used to prepare either crude cell lysate or microsome fractions. To harvest cells, tissue culture media was decanted, the monolayer washed three times with Ca^++Mg^++ free PBS and cells recovered after […] in enzyme free dissociation media (Millipore Corp, Billerica, Mass.). Cells were collected by centrifuging at 2000 rpm for 15 min. and the cell pellet re-suspended with 50 mM HEPES (pH 7.4) containing 1 mM EDTA and the protease inhibitors aprotinin (1 mg/ml) and leupeptin (100 μM). The suspension was sonicated at 4° C. and the cell lysate recovered after centrifuging at 12,000×g (14,600 rpm, SS34 rotor) for 20 min at 4° C. to form a crude pellet of cell debris, nuclei, peroxisomes, lysosomes, and mitochondria; the supernatant or cell lysate was used for FAAH enzyme assay. In some cases, microsomes fractions enriched in FAAH were prepared by centrifuging the cell lysate further at 27,000 rpm (100,000×g) in SW28 rotor for 50 minutes at 4° C. The pellet containing FAAH-enriched microsomes was re-suspend in 50 mM HEPES, (pH 7,4) 1 mM EDTA, and any remaining DNA sheared by passage of material through a 23 gauge needle and aliquots of enzyme were store at −80° C. prior to use.
Assays are performed on either cell lysate or microsome fractions prepared as described or in whole cell format employing either the fluorescent substrate AAMCA (Cayman chemical, Ann Arbor, Mich.,) or ^3H-anandamide ([ETHANOLAMINE-1-3H] American Radiolabeled Chemicals; 1 mCi/ml). The cell lysate or microsome assay is performed in Costar black wall, clear bottom plates by adding FAAH_CHO (whole cell, cell lysate or microsome) in assay buffer (50 mM Phosphate, pH 8.0, 1 mM EDTA, 200 mM KCl, 0.2% glycerol, 0.1% fatty acid free BSA) to each well, followed by either DMSO or compound and allowed to incubate at 22-25° C. for fifteen minutes. AAMCA substrate was used to achieve a final concentration of 1 μM and reaction allowed to proceed at room temperature for 1-3 hours. […] Whole cell assay is conducted with cells harvested after rinsing tissue culture flasks three times with Ca^++Mg^++ free PBS, incubating for 10 mm in Enzyme free dissociation media and centrifuging for 5 minutes at 1,000 rpm in table top centrifuge. Cells are resuspended in assay buffer at desired cell number in (4×10^4 cells/assay in 96-well format; 1×10^4 cells/assay in 384-well format) and assayed as described.
Alternatively, assays are performed using anandamide [ethanolamine 1-^3H] (specific activity of 10 Ci/mmol) diluted with cold anandamide to achieve a final assay concentration of 1 μM anandamide (˜50,000 cpm). Enzyme (CHO cell lysate, brain or liver homogenate) is incubated in assay buffer (50 mM Phosphate, pH 8.0, 1 mM EDTA, 200 mM KCl, 0.2% glycerol, 0.1% fatty acid free BSA) with inhibitor at 25° C. for 30 minutes. The reaction was terminated by addition of 2 volumes of chloroform:methanol (1:1) and mixed by vortexing. Following a centrifugation step, 2000 rpm for 10 min. at room temperature, the aqueous phase containing the released […] was recovered and quantitated by liquid scintillation as a reflection of FAAH enzyme activity.

Setting [2] is: B series, read-out: Human FAAH lysate assay: IC50.
Setting [3] is: tables of the B series, read-out: hFAAH lysate IC50.

On to `Cc1ccc(-c2ncc(Cl)cc2-c2ccc(S(C)(=O)=O)cc2)cn1` [etoricoxib, reference compound], for which the “Interaction of analgesic effect against inflammatory pain when co-dosed (isobologram)” value in test [1] was “additive”. One may read the IC50 as the concentration that inhibits the measured activity by half. Consider `Cc1nnc([C@H]2C[C@@H]2c2ccc(-c3ncn(C)c3Sc3ccc(Cl)cn3)cc2)o1` [Example 19B, 5-Chloro-2-[(1-methyl-4-{4-[(1S,2S)-2-(5-methyl-1,3,4-oxadiazol-2-yl)cyclopropyl]phenyl}-1H-imidazol-5-yl)thio]pyridine], for which the IC50 on Human FAAH (setting [2]) was 0.046 µM.

Take `Cn1cnc(-c2ccc([C@H]3C[C@@H]3c3n[nH]c(=O)o3)cc2)c1Sc1ccc(Cl)cn1` [Example 17B, 5-[(1S,2S)-2-(4-{5-[(5-Chloropyridin-2-yl)thio]-1-methyl-1H-imidazol-4-yl}phenyl)cyclopropyl]-1,3,4-oxadiazol-2(3H)-one]: on Human FAAH (setting [2]), the IC50 was found to be 0.0045 µM.

`Cn1cnc(-c2ccc([C@H]3C[C@@H]3c3n[nH]c(=O)n3C)cc2)c1Sc1ccc(Cl)cn1` [Example 34B, 5-[(1S,2S)-2-(4-{5-[(5-chloropyridin-2yl)thio]-1-methyl-1H-imidazol-4-yl}phenyl)cyclopropyl]-4-methyl-2,4-dihydro-3H-1,2,4-triazol-3-one]: the half-inhibitory concentration (IC50) on Human FAAH (setting [2]) amounted to 0.893 µM. Turning to `Cn1cnc(-c2ccc([C@H]3C[C@@H]3c3n[nH]c(=O)o3)cc2)c1Sc1ccc(F)cc1F` [Example 41B], the IC50 at Human FAAH (setting [3]) is 0.0013 µM. The same measure, in the same setting: for `CC(C)c1ccc(Sc2c(-c3ccc([C@H]4C[C@@H]4c4n[nH]c(=O)o4)cc3)ncn2C)cc1` [Example 43B] the value was 0.02 µM.

As to `CN(C)C(=O)C1CC1c1ccc(-c2ncn(C)c2Sc2ccc(Cl)cn2)cc1` (centres unmarked) [Example 1B, 2-(4-{5[(5-Chloropyridin-2yl-)thio]-1-methyl-1H-imidazol-4-yl}phenyl)-N,N-dimethylcyclopropanecarboxamide], the 50% inhibitory concentration (IC50) on Human FAAH (setting [2]) worked out at 0.0014 µM. In the case of `Cn1cnc(-c2ccc(C3CC3C(N)=O)cc2)c1Sc1ccc(Cl)cn1` (centres unmarked) [Example 4B], the IC50 at Human FAAH (setting [3]) came to 0.0026 µM.

Regarding `CN(CCF)C(=O)[C@H]1C[C@@H]1c1ccc(-c2ncn(C)c2Sc2ccc(Cl)cn2)cc1` [Example 11B, (1S,2S)-2-(4-{5-[(5-Chloropyridin-2-yl)thio]-1-methyl-1H-imidazol-4-yl}phenyl)-N-(2-fluoroethyl)-N-methylcyclopropanecarboxamide], the 50% inhibitory concentration (IC50) on Human FAAH (setting [2]) was 0.003 µM. On the same count and under the same terms, for `Cn1cnc(-c2ccc([C@H]3C[C@@H]3c3noc(=O)[nH]3)cc2)c1Sc1ccc(Cl)cn1` [Example 36B, 5-[(5-chloropyridin-2-yl)thio]-1-methyl-4-{4-[(1S,2S)-2-(5-oxo-4,5-dihydro-1,2,4-oxadiazol-3-yl)cyclopropyl]phenyl}-1H-imidazol-3-ium trifluoroacetate] the value was 0.0954 µM; for `CN(C)C(=O)[C@H]1C[C@@H]1c1ccc(-c2ncn(CCF)c2Sc2ccc(Cl)cn2)cc1` [Example 14B, 5-[(5-Chloropyridin-2-yl)thio]-4-(4-{(1S,2S)-2-[(dimethylamino)carbonyl]cyclopropyl}phenyl)-1-(2-fluoroethyl)-1H-imidazol-3-ium trifluoroacetate], 0.0032 µM; for `Cn1cnc(-c2ccc([C@H]3C[C@@H]3C(C)(C)O)cc2)c1Sc1ccc(Cl)cn1` [Example 22B, 2-[(1S,2S)-2-(4-{5-[(5-Chloropyridin-2-yl)thio]-1-methyl-1H-imidazol-4-yl}phenyl)cyclopropyl]propan-2-ol], 0.0087 µM. With `CN(C)C(=O)[C@H]1C[C@@H]1c1ccc(-c2ncn(C)c2Sc2ccc(Cl)cc2)cc1` [Example 9B], at Human FAAH (setting [2]), the IC50 came out at 0.0003 µM.

As for `Cn1cnc(-c2ccc([C@H]3C[C@@H]3COCCF)cc2)c1Sc1ccc(Cl)cn1` [Example 25B, 5-Chloro-2-{[4-(4-{(1S,2S)-2-[(2-fluoroethoxy)methyl]cyclopropyl}phenyl)-1-methyl-1H-imidazol-5-yl]thio}pyridine], at Human FAAH (setting [2]), the IC50 came to 0.0693 µM. On the same count and under the same terms, the figure for `Cn1cnc(-c2ccc([C@H]3C[C@@H]3c3n[nH]c(=S)[nH]3)cc2)c1Sc1ccc(Cl)cn1` [Example 32B, 5-[(1S,2S)-2-(4-{5-[(5-chloropyridin-2-yl)thio]-1-methyl-1H-imidazol-4-yl}phenyl)cyclopropyl]-2,4-dihydro-3H-1,2,4-triazole-3-thione] is 0.304 µM. As to `CNC(=O)C1CC1c1ccc(-c2ncn(C)c2Sc2ccc(Cl)cn2)cc1` (centres unmarked) [Example 3B], the IC50 at Human FAAH (setting [3]) stood at 0.0014 µM. On the same count and under the same terms, for `Cn1cnc(-c2ccc([C@H]3C[C@@H]3C(N)=O)cc2)c1Sc1ccc(Cl)cn1` [Example 7B] the value was 0.0033 µM; for `CC(C)NC(=O)C1CC1c1ccc(-c2ncn(C)c2Sc2ccc(Cl)cn2)cc1` (centres unmarked) [Example 2B], 0.0063 µM. In the case of `COc1nnc([C@H]2C[C@@H]2c2ccc(-c3ncn(C)c3Sc3ccc(Cl)cn3)cc2)o1` [Example 18B, 5-Chloro-2-[(4-{4-[(1S,2S)-2-(5-methoxy-1,3,4-oxadiazol-2-yl)cyclopropyl]phenyl}-1-methyl-1H-imidazol-5-yl)thio]pyridine], at Human FAAH (setting [2]), the IC50 is 0.0156 µM.

Turning to `CN(C)C(=O)C1CC1c1ccc(-c2nc(C3CC3)n(C)c2Sc2ccc(Cl)cn2)cc1` (centres unmarked) [Example 13B, 5-[(5-Chloropyridin-2-yl)thio]-2-cyclopropyl-4-(4-{2-[(dimethylamino)carbonyl]cyclopropyl}phenyl)-1-methyl-1H-imidazol-3-ium trifluoroacetate], the IC50 at Human FAAH (setting [2]) was 0.0483 µM. In the case of `Cn1cnc(-c2ccc([C@H]3C[C@@H]3C(=O)NC(C)(C)C)cc2)c1Sc1ccc(Cl)cn1` [Example 8B], at Human FAAH (setting [3]), the IC50 amounted to 0.196 µM. `Cc1nc(-c2ccc([C@@H]3C[C@H]3C(=O)N(C)C)cc2)c(Sc2ccc(Cl)cn2)n1C` [Example 12B, (1R,2R)-2-(4-{5-[(5-Chloropyridin-2-yl)thio]-1,2-dimethyl-1H-imidazol-4-yl}phenyl)-N,N-dimethylcyclopropanecarboxamide]: the IC50 on Human FAAH (setting [2]) came to 0.0136 µM. Same read-out and setting: the figure for `Cn1cnc(-c2ccc([C@H]3C[C@@H]3c3n[nH]c(=O)[nH]3)cc2)c1Sc1ccc(Cl)cn1` [Example 33B, 5-[(1S,2S)-2-(4-{5-[(5-chloropyridin-2-yl)thio]-1-methyl-1H-imidazol-4-yl}phenyl)cyclopropyl]-2,4-dihydro-3H-1,2,4-triazol-3-one] is 0.545 µM; for `COC[C@H]1C[C@@H]1c1ccc(-c2ncn(C)c2Sc2ccc(Cl)cn2)cc1` [Example 24B, 5-Chloro-2-[(4-{4-[(1S,2S)-2-(methoxymethyl)cyclopropyl]phenyl}-1-methyl-1H-imidazol-5-yl)thio]pyridine] it is 0.0355 µM. In the case of `CC(C)(O)c1ccc(-c2nc(-c3ccc(F)c(F)c3)oc2Sc2ccc(Cl)cn2)cn1` [compound A], the “Interaction of analgesic effect against inflammatory pain when co-dosed (isobologram)” value in test [1] is recorded as “additive”.

On to `CNC(=O)[C@H]1C[C@@H]1c1ccc(-c2ncn(C)c2Sc2ccc(Cl)cn2)cc1` [Example 6B], for which, at Human FAAH (setting [3]), the IC50 was 0.0011 µM.

(Values after patent publication US20130030000A1, “PHARMACEUTICAL COMPOSITIONS FOR THE TREATMENT OF PAIN AND OTHER INDICATIONS” (priority 2010, published 2013).)
